According to patent publication US20190185865A1, “USE OF PROKARYOTIC TRANSCRIPTIONAL ACTIVATORS AS METABOLITE BIOSENSORS IN EUKARYOTIC CELLS” (Danmarks Tekniske Universitet, priority 2016, published 2019):

Biological target: T1, BenM (Acinetobacter baylyi, UniProt O68014)
T1 construct: expressed in transfected cells; host or cells: Saccharomyces cerevisiae CEN.PK113-5A, chromosomal integration; promoters TDH3p, TEF1p, RNR2p or REV1p
Test: CCM-induced GFP expression in yeast strains combining BenM expression cassettes and CYC1p reporter promoter variants (flow cytometry)
Format: cell-based, Saccharomyces cerevisiae
Conditions: for FC (+/−CCM): 1.4 mM CCM, 24 h
Description: Strains, chemicals and media. Saccharomyces cerevisiae CEN.PK102-5B (MATa ura3-52 his3Δ1 leu2-3/112 MAL2-8^c SUC2), CEN.PK113-5A (MATa, trp1 his3Δ1 leu2-3/112 MAL2-8^c SUC2) and CEN.PK113-7D (wild type, MATa MAL2-8^c SUC2) strains were obtained from Peter Kotter (Johann Wolfgang Goethe-University Frankfurt, Germany). In principal any other yeast strains may be used, such as one obtained from public repository EuroScarf. EasyClone plasmids used in this work are described in Jensen, N. B. et al. EasyClone: method for iterative chromosomal integration of multiple genes in Saccharomyces cerevisiae. FEMS Yeast Res. 14, 238-48 (2014). Escherichia coli strain DH5a was used as a host for cloning and plasmid propagation. The chemicals and Pfu TURBO DNA polymerase were commercially obtained (Sigma-Aldrich and Agilent Technologies Inc., respectively). All acids used were >97% in purity. S. cerevisiae cells were grown at 30° C. in synthetic complete medium as well as drop-out media and agar plates were prepared using pre-mixed drop-out powders (Sigma-Aldrich). Mineral medium was freshly prepared as described previously. For all media containing diacids, 1.4 mM of the individual diacids were dissolved in mineral medium and pH adjusted to 4.5 before sterile filtration. For CCM several dilutions were made to examine the performance of the CCM biosensor. For naringenin, mineral medium was supplemented with 0, 0.05, 0.10 or 0.20 mM naringenin, dissolved in ethanol, the final ethanol concentration for each medium was 2% (v/v), and the final pH of the medium was adjusted to 6.0. E. coli cells were grown at 37° C. in Luria-Bertani (LB) medium supplemented with 100 μg/mL ampicillin.
Events were analyzed using FlowJo software (TreeStar Inc.).

[1] = strain MeLS0162, RNR2p-BenM + 249bp_CYC1p:GFP
[2] = strain MeLS0163, RNR2p-BenM + 209bp_CYC1p:GFP
[3] = strain MeLS0164, TDH3p-BenM + 491bp_CYC1p:GFP
[4] = strain MeLS0165, TDH3p-BenM + 272bp_CYC1p:GFP
[5] = strain MeLS0166, TDH3p-BenM + 249bp_CYC1p:GFP
[6] = strain MeLS0167, TDH3p-BenM + 209bp_CYC1p:GFP
[7] = strain MeLS0168, TEF1p-BenM + 491bp_CYC1p_BenO_T1:GFP
[8] = strain MeLS0169, TEF1p-BenM + 249bp_CYC1p_BenO_T1:GFP
[9] = strain MeLS0170, RNR2p-BenM + 491bp_CYC1p_BenO_T1:GFP
[10] = strain MeLS0171, RNR2p-BenM + 249bp_CYC1p_BenO_T1:GFP
[11] = strain MeLS0172, TDH3p-BenM + 491bp_CYC1p_BenO_T1:GFP
[12] = strain MeLS0173, TDH3p-BenM + 249bp_CYC1p_BenO_T1:GFP
[13] = strain MeLS0182, TEF1p-BenM + 272bp_CYC1p_BenO_T2:GFP
[14] = strain MeLS0183, TEF1p-BenM + 272bp_CYC1p_BenO_T1/T2:GFP
[15] = strain MeLS0184, TEF1p-BenM + 249bp_CYC1p_BenO_T2:GFP
[16] = strain MeLS0185, TEF1p-BenM + 249bp_CYC1p_BenO_T1/T2:GFP
[17] = strain MeLS0186, REV1p-BenM + 272bp_CYC1p_BenO_T2:GFP
[18] = strain MeLS0187, REV1p-BenM + 272bp_CYC1p_BenO_T1/T2:GFP
[19] = strain MeLS0188, REV1p-BenM + 249bp_CYC1p_BenO_T2:GFP
[20] = strain MeLS0189, REV1p-BenM + 249bp_CYC1p_BenO_T1/T2:GFP
[21] = strain MeLS0190, TDH3p-BenM + 272bp_CYC1p_BenO_T2:GFP
[22] = strain MeLS0191, TDH3p-BenM + 272bp_CYC1p_BenO_T1/T2:GFP
[23] = strain MeLS0192, TDH3p-BenM + 249bp_CYC1p_BenO_T2:GFP
[24] = strain MeLS0193, TDH3p-BenM + 249bp_CYC1p_BenO_T1/T2:GFP
[25] = strain MeLS0195, RNR2p-BenM + 272bp_CYC1p_BenO_T1/T2:GFP
[26] = strain MeLS0196, RNR2p-BenM + 249bp_CYC1p_BenO_T2:GFP
[27] = strain MeLS0197, RNR2p-BenM + 249bp_CYC1p_BenO_T1/T2:GFP
[28] = strain MeLS0263, TDH3p-BenM + 491bp_CYC1p_BenO_T2:GFP
[29] = strain MeLS0264, TDH3p-BenM + 209bp_CYC1p_BenO_T2:GFP
[30] = strain MeLS0265, RNR2p-BenM + 491bp_CYC1p_BenO_T2:GFP
[31] = strain MeLS0266, RNR2p-BenM + 209bp_CYC1p_BenO_T2:GFP
[32] = strain MeLS0267, TDH3p-BenM + 491bp_CYC1p_BenO_T1/T2:GFP
[33] = strain MeLS0268, TDH3p-BenM + 209bp_CYC1p_BenO_T1/T2:GFP
[34] = strain MeLS0269, RNR2p-BenM + 491bp_CYC1p_BenO_T1/T2:GFP
[35] = strain MelS0194, RNR2p-BenM + 272bp_CYC1p_BenO_T2:GFP

T1 sequence (O68014 whole entry): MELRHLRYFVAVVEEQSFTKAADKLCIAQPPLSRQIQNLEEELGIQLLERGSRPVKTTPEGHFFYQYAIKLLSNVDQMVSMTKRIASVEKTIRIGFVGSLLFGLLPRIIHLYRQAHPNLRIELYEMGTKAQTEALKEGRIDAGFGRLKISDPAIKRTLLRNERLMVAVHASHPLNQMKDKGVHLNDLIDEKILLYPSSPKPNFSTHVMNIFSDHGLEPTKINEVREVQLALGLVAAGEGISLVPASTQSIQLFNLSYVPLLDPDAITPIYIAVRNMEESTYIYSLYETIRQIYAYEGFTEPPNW

## O=C(O)/C=C\C=C/C(=O)O [CCM, cis, cis-muconic acid]
[1]
  Mean fluorescense intensities of GFP (24 h), CCM (1.4 mM): 164
  FC (+/−CCM): 1.121
[2]
  Mean fluorescense intensities of GFP (24 h), CCM (1.4 mM): 164
  FC (+/−CCM): 1.121
[3]
  Mean fluorescense intensities of GFP (24 h), CCM (1.4 mM): 4509
  FC (+/−CCM): 1.126
[4]
  Mean fluorescense intensities of GFP (24 h), CCM (1.4 mM): 216
  FC (+/−CCM): 1.157
[5]
  Mean fluorescense intensities of GFP (24 h), CCM (1.4 mM): 205
  FC (+/−CCM): 1.131
[6]
  Mean fluorescense intensities of GFP (24 h), CCM (1.4 mM): 194
  FC (+/−CCM): 1.09
[7]
  Mean fluorescense intensities of GFP (24 h), CCM (1.4 mM): 20250
  FC (+/−CCM): 1.312
[8]
  Mean fluorescense intensities of GFP (24 h), CCM (1.4 mM): 2913
  FC (+/−CCM): 4.337
[9]
  Mean fluorescense intensities of GFP (24 h), CCM (1.4 mM): 6114
  FC (+/−CCM): 1.089
[10]
  Mean fluorescense intensities of GFP (24 h), CCM (1.4 mM): 290
  FC (+/−CCM): 1.549
[11]
  Mean fluorescense intensities of GFP (24 h), CCM (1.4 mM): 10605
  FC (+/−CCM): 1.538
[12]
  Mean fluorescense intensities of GFP (24 h), CCM (1.4 mM): 3554
  FC (+/−CCM): 4.707
[13]
  Mean fluorescense intensities of GFP (24 h), CCM (1.4 mM): 211
  FC (+/−CCM): 1.155
[14]
  Mean fluorescense intensities of GFP (24 h), CCM (1.4 mM): 511
  FC (+/−CCM): 1.969
[15]
  Mean fluorescense intensities of GFP (24 h), CCM (1.4 mM): 475
  FC (+/−CCM): 1.653
[16]
  Mean fluorescense intensities of GFP (24 h), CCM (1.4 mM): 9992
  FC (+/−CCM): 3.797
[17]
  Mean fluorescense intensities of GFP (24 h), CCM (1.4 mM): 197
  FC (+/−CCM): 1.201
[18]
  Mean fluorescense intensities of GFP (24 h), CCM (1.4 mM): 370
  FC (+/−CCM): 1.789
[19]
  Mean fluorescense intensities of GFP (24 h), CCM (1.4 mM): 194
  FC (+/−CCM): 1.215
[20]
  Mean fluorescense intensities of GFP (24 h), CCM (1.4 mM): 181
  FC (+/−CCM): 1.22
[21]
  Mean fluorescense intensities of GFP (24 h), CCM (1.4 mM): 218
  FC (+/−CCM): 1.088
[22]
  Mean fluorescense intensities of GFP (24 h), CCM (1.4 mM): 691
  FC (+/−CCM): 1.892
[23]
  Mean fluorescense intensities of GFP (24 h), CCM (1.4 mM): 978
  FC (+/−CCM): 1.761
[24]
  Mean fluorescense intensities of GFP (24 h), CCM (1.4 mM): 1630
  FC (+/−CCM): 4.004
[25]
  Mean fluorescense intensities of GFP (24 h), CCM (1.4 mM): 199
  FC (+/−CCM): 1.238
[26]
  Mean fluorescense intensities of GFP (24 h), CCM (1.4 mM): 349
  FC (+/−CCM): 1.575
[27]
  Mean fluorescense intensities of GFP (24 h), CCM (1.4 mM): 256
  FC (+/−CCM): 1.571
[28]
  Mean fluorescense intensities of GFP (24 h), CCM (1.4 mM): 1197
  FC (+/−CCM): 1.898
[29]
  Mean fluorescense intensities of GFP (24 h), CCM (1.4 mM): 527
  FC (+/−CCM): 1.495
[30]
  Mean fluorescense intensities of GFP (24 h), CCM (1.4 mM): 698
  FC (+/−CCM): 1.513
[31]
  Mean fluorescense intensities of GFP (24 h), CCM (1.4 mM): 179
  FC (+/−CCM): 1.072
[32]
  Mean fluorescense intensities of GFP (24 h), CCM (1.4 mM): 2218
  FC (+/−CCM): 2.64
[33]
  Mean fluorescense intensities of GFP (24 h), CCM (1.4 mM): 2172
  FC (+/−CCM): 3.25
[34]
  Mean fluorescense intensities of GFP (24 h), CCM (1.4 mM): 2589
  FC (+/−CCM): 2.005
[35]
  Mean fluorescense intensities of GFP (24 h), CCM (1.4 mM): 258
  FC (+/−CCM): 1.065
wild-type BenM, diacids 1.4 mM, pH 4.5, 24 h
  specificity of GFP induction among diacids tested: induce GFP expression specifically in response to CCM
